Data from patent US10851069B2, “Compositions of crystallized hydrophobic compounds and methods of making and using same” (Massachusetts Institute of Technology, priority 2016, dated 2020).

Assays:
C57BL/6 mice [1] = test: Crystalline drug-loaded alginate capsules, long-term IP/SC implantation, prevention of fibrosis; format: in vivo; conditions: crystalline form in alginate capsules, retrieved after 1, 3 and 6 months from IP space
From the text: Lead compounds identified by screening the amorphous formulations (e.g., compounds of Formulae I-X, particularly LY215799, Dx, Curcumin, GW2580, QNZ and Ki20227) were studied for long-term release and prevention of fibrosis following encapsulation in crystalline form and implantation into the intraperitoneal (IP) space of C57BL/6 mice for long term testing. […] Drug extraction analysis by HPLC also determined that notable percentages (e.g., more than 50%) of the loaded drug remained within the retrieved capsules (FIG. 22D), particularly in the subcutaneous implanted samples. […] In contrast, capsules retrieved from the IP space 6 months post-implantation were identified with only 2-40% of the loaded drug remaining within the retrieved capsules.
All animal protocols were approved by the MIT Committee on Animal Care, and all surgical procedures and post-operative care was supervised by MIT Division of Comparative Medicine veterinary staff. Immune-competent male non-diabetic or STZ-induced diabetic C57BL/6 mice (Jackson Laboratory, Bar Harbor, Me.) were anesthetized with 3% isoflurane in oxygen and had their abdomens shaved and sterilized using betadine and isopropanol. Preoperatively, all mice also received a 0.05 mg/kg dose of buprenorphine subcutaneously as a pre-surgical analgesic, along with 0.3 mL of 0.9% saline subcutaneously to prevent dehydration. A […] incision was made along the midline of the abdomen and the peritoneal lining was exposed using blunt dissection. The peritoneal wall was then grasped with forceps and a 0.5-1 mm incision was made along the linea alba. A desired volume of spheres (all materials without islets, as well as SLG20 spheres encapsulating rat islets) were then loaded into a sterile pipette and implanted into the peritoneal cavity through the incision. The incision was then closed using 5-0 taper-tipped polydioxanone (PDS II) absorbable sutures. The skin was then closed over the incision using a wound clip and tissue glue.
At desired time points post-implantation or transplantation (with encapsulated islets), as specified in figures, mice were euthanized by CO2 administration, followed by cervical dislocation. In certain instances, 5 ml of ice cold PBS was first injected in order perform an intraperitoneal lavage to rinse out and collect free-floating intraperitoneal immune cells. An incision was then made using the forceps and scissors along the abdomen skin and peritoneal wall, and intraperitoneal lavage volumes were pipetted out into fresh 15 ml falcon tubes (each prepared with 5 ml of RPMI cell culture media). Next, a wash bottle tip was inserted into the abdominal cavity. KREBS buffer was then used to wash out all material spheres from the abdomen and into petri dishes for collection. After ensuring all the spheres were washed out or manually retrieved (if fibrosed directly to intraperitoneal tissues), they were transferred into 50 mL conical tubes for downstream processing and imaging. After intraperitoneal lavage and sphere retrieval, remaining fibrosed intraperitoneal tissues were also excised for downstream FACS and expression analyses.
For phase contrast imaging, retrieved materials were gently washed using Krebs buffer and transferred into 35 mm petri dishes for phase contrast microscopy using an Evos X1 microscope (Advanced Microscopy Group).
Immunofluorescence imaging was used to determine immune populations attached to spheres. […]

[2] = system: inflammatory macrophage markers Sphk1, TNFα, Arg1, IL1; test: NanoString multiplexed gene expression analysis of retrieved capsules; format: in vivo, C57BL/6 mice; conditions: amorphous drug-loaded capsules, 2 weeks IP; CSF1R-targeting agents compared
Protocol: RNAs for mock-implanted (mock) controls, or for various drug-loaded 0.5 mm diameter alginate sphere-bearing mice (n=4/group) were isolated from tissue samples taken at various time points after implantation, as described. Respective RNAs were quantified, diluted to the appropriate concentration (100 ng/μl), and then 500 ng of each sample was processed according to NanoString manufacturer protocols for expression analysis via our customized multiplexed gene mouse macrophage subtyping panel. RNA levels (absolute copy numbers) were obtained following nCounter (NanoString Technologies Inc., Seattle, Wash.) quantification, and group samples were analyzed using nSolver analysis software (NanoString Technologies Inc., Seattle, Wash.).

C57BL/6 mice [3] = test: Anti-fibrotic screening of amorphous drug formulations in 500 μm alginate capsules, 2-week intraperitoneal implantation; format: in vivo; conditions: conclusion; alginate hydrogel, ceramic, glass, PDMS and polystyrene beads
From the text: For screening of anti-fibrotic drug activity, amorphous drug formulations were encapsulated inside 500 μm alginate capsules. Broad-spectrum anti-inflammatory agents curcumin, dexamethasone, and rapamycin have been used for preventing fibrosis of various biomaterials, such as polymer PLGA and hydrogel alginate. A panel of lead drug candidates (e.g., compounds of Formulae I-X) including the traditional broad-spectrum anti-inflammatories as well as agents targeted to essential macrophage biology pathways (e.g., TNFα, NFκB, p110δ/PI3K, TGFβ, and CSF1R) were selected. […] SLG20 alginate hydrogel spheres with these lead drug candidates were prepared as amorphous formulations to investigate the effect of macrophage immunomodulation on foreign body response. Drugs were encapsulated in amorphous form prepared by first dissolving in an organic solvent (e.g., vehicle in FIGS. 7, 9) then by mixing with alginate aqueous solution. Efficacy in preventing fibrosis was assessed in C57BL/6 mice at 2-weeks post implantation into the intraperitoneal (IP) cavity. Drug-containing spheres (500 μl/animal) were then implanted into the intraperitoneal space of C57BL/6 mice for 14 days. After this period, spheres were harvested and studied for cellular deposition and fibrosis.
All animal protocols were approved by the MIT Committee on Animal Care, and all surgical procedures and post-operative care was supervised by MIT Division of Comparative Medicine veterinary staff. Immune-competent male non-diabetic or STZ-induced diabetic C57BL/6 mice (Jackson Laboratory, Bar Harbor, Me.) were anesthetized with 3% isoflurane in oxygen and had their abdomens shaved and sterilized using betadine and isopropanol. Preoperatively, all mice also received a 0.05 mg/kg dose of buprenorphine subcutaneously as a pre-surgical analgesic, along with 0.3 mL of 0.9% saline subcutaneously to prevent dehydration. A […] incision was made along the midline of the abdomen and the peritoneal lining was exposed using blunt dissection. […]

[4] = In vitro drug release from alginate capsules loaded with crystalline or amorphous formulations; format: physicochemical
Protocol: Release study was carried out in 3 different media, a normal saline-Isopropyl alcohol (10%) mixture, a phosphate buffer (pH 7.4), or for accelerated condition with phosphate buffered saline (pH 7.4) either with 0.1% w/v or 03% w/v SDS. Release study at NS+10% IPA was carried out in 2 ml medium at 37° C. Sampling was carried out by replacement of 1.5 ml of release medium by total replacement of release medium with fresh medium. […] For release in accelerated condition (PBS+SDS), the same time points were followed while 20 μl of drug loaded capsules were incubated in 2 ml release medium to achieve sink conditions. Drug concentration in samples was measured by reverse phase HPLC on C-18 column with a mobile phase or using UV calibrated system. An isocratic mode was set at a flow rate of 0.5-2 ml/min and a different wave-length of nm and 20-50 μl of samples was injected into an HPLC system (Waters, LC-Module-I) or UV analyzed. Calibration curves were prepared in concentration range of 0.05-10 μg/ml. Using prepared calibration curves, drugs concentration in different release samples were calculated.

Row | SMILES | fibrosis by phase contrast imaging and confocal microscopy (C57BL/6 mice [1]) | efficacy in inhibiting fibrosis of implanted biomaterial (C57BL/6 mice [3]) | other results
1 | Nc1ccc2ncnc(NCCc3ccc(Oc4ccccc4)cc3)c2c1 [QNZ, N4-(4-phenoxyphenethyl)quinazoline-4,6-diamine] | fibrosis free | – | –
2 | Cc1ccc(Nc2c(C(N)=O)cnc3cc(-c4ccc(S(C)(=O)=O)cc4)ccc23)cc1C [cFMS receptor inhibitor III, 4-(3,4-Dimethylanilino)-7-(4-(methylsulfonyl)phenyl)quinoline-3-carboxamide] | – | demonstrated efficacy in inhibiting fibrosis | gene expression responses [2]: almost identical gene expression responses
3 | COc1cc(Oc2ccnc3cc(OC)c(OC)cc23)ccc1NC(=O)NC(C)c1nccs1 (centres unmarked) [Ki20227, N-[4-[(6,7-Dimethoxy-4-quinolinyl)oxy]-2-methoxyphenyl]-N′-[1-(2-thiazolyl)ethyl]urea] | fibrosis free | demonstrated efficacy in inhibiting fibrosis | –
4 | COc1cc(/C=C/C(=O)CC(=O)/C=C/c2ccc(O)c(OC)c2)ccc1O [Curcumin, (1E,6E)-1,7-bis (4-hydroxy-3-methoxyphenyl)-1,6-heptadiene-3,5-dione] | fibrosis free | – | drug release profile ([4]; amorphous curcumin encapsulated in alginate, in vitro up to 2 months): quicker drug release; drug release profile ([4]; crystalline curcumin encapsulated in alginate, in vitro up to 2 months): releases more slowly initially, but can be maintained for much longer periods of time; duration of long-term release (slow surface erosion) ([4]; crystalline curcumin loaded into alginate spheres): at least 2 months; drug release profile ([4]; mixed crystalline:amorphous 3:1 curcumin in alginate): both quick and extended release
5 | Cc1cccc(-c2nn3c(c2-c2ccnc4ccc(C(N)=O)cc24)CCC3)n1 [LY215799, 4-(2-(6-methylpyridin-2-yl)-5,6-dihydro-4H-pyrrolo[1,2-b]pyrazol-3-yl)quinoline-6-carboxamide] | fibrosis free | – | –
